Structures can show the parent of a compound that is named as a salt. Where two headings read alike, the source gives them in different places.
Key:
[1] = Solubility experiment (HPLC, external standard method); assay type: physicochemical
Procedure: The concentrated solution was placed in a 20° C. water bath thermostatic oscillator for overnight oscillation (supersaturation) and filtered. The filtrate was taken, 1 mL of which was precisely measured and placed in a 100 mL volumetric flask. A diluent (water) was added, the mixture was diluted to volume and mixed well, 1 mL of which was precisely measured and placed in a 10 mL volumetric flask. A diluent was added, the mixture was diluted to volume and mixed well as a test sample solution.
Control substance solution: A proper amount of 5 samples were respectively taken, precisely measured, dissolved in a proper amount of a diluent by ultrasonication, and diluted to give a solution containing about 0.1 mg of the sample per 1 mL. Two duplicate samples were prepared for each batch.
• (1) Preparation of buffer: About 2.6428 g ammonium sulfate was weighed and dissolved in 1000 mL of water. 2 mL of triethylamine was added, and the pH value was adjusted to 4.0 with dilute sulfuric acid. • (2) Preparation of mobile phase: Methanol-0.02 mol/L ammonium sulfate solution (2 mL triethylamine was added per 1000 mL, and the pH value was adjusted to 4.0 with dilute sulfuric acid) (45:55). 1000 mL was prepared, mixed well, filtered, and used after ultrasonic treatment.
Detection wavelength: 230 nm; flow rate: 1.0 mL/min; column temperature: 35° C.; sample injection volume: 20 μL; chromatographic column: Agilent Eclipse XDB-C18 chromatographic column (4.6×150 mm, 5 μm); mobile phase: methanol-0.02 mol/L ammonium sulfate solution (2 mL triethylamine was added per 1000 mL, and the pH value was adjusted to 4.0 with dilute sulfuric acid) (45:55).
20 μL of each solution was precisely measured, and injected separately into a liquid chromatograph. The chromatograms were recorded, and the solubility of the compounds was determined according to an external standard method.

[2] = Experiments of influencing factors (crystal form stability, XRPD); assay type: physicochemical; settings: hydrochloride; for Crystal form after High temperature of 60° C. / Crystal form after Illumination of 5000 1x / Crystal form after High humidity of 92.5%: XRPD; for Crystal form stability (experimental conclusion): high temperature, high humidity, illumination, condition stated in the value; for Crystal form after Illumination of 5000 1x: photostability tester 5000 lx; for Crystal form after High humidity of 92.5%: relative humidity 92.5%
Procedure: High temperature experiment: About 1 g of the A, B, and C crystal forms were respectively weighed, placed in a clean watch glass, and placed at 60° C. for 10 days. The samples were taken on day 0, day 5, day 10, and day 30 for XRPD analysis.
High humidity experiment: About 1 g of the A, B, and C crystal form samples were respectively weighed, placed in a clean watch glass, and placed at a relative humidity of 92.5% for 10 days. The samples were taken on day 0, day 5, day 10, and day 30 for XRPD analysis.
Illumination experiment: About 1 g of the A, B, and C crystal form samples were respectively weighed, placed in a clean watch glass, laid flat, and placed in a photostability tester (the illumination was 5000 lx) for 10 days. The samples were taken on day 0, day 5, day 10, and day 30 for XRPD analysis.

[3] = both, beagle, dog, in vivo
Procedure: (§1) Each group had six beagle dogs, half male and half female.
(§2) Preparation of solutions: • 1) Intravenous injection administration: 0.9% Normal saline was used as a vehicle. • 2) Oral administration: According to the dose of 10 mg/kg (based on base), a corresponding mass of the drug was weighed according to the actual weight of the animal, and then filled into a capsule to be administered to the animal.

[4] = Hygroscopicity test; assay type: physicochemical; settings: 25° C.±1° C., relative humidity 80%±2%, 24 h; for Hygroscopicity: hydrochloride
Procedure: 17.1. A dried glass weighing bottle with a plug (outer diameter: 50 mm; height: 15 mm) was taken and placed in a suitable thermostatic dryer (with saturated ammonium chloride or ammonium sulfate solution placed in the lower part) at 25° C.±1° C. or an artificial climate box (with a set temperature at 25° C.±1° C. and relative humidity at 80%±2%) on the day before the test, and the weight (m1) was precisely measured. 17.2. An appropriate amount of the A crystal form of the compound of formula (I) was taken and spread in the above weighing bottle, with the thickness of the test sample being about 1 mm in general, and the weight (m2) was precisely measured. […] The weighing bottle was opened and placed in the above conditions at constant temperature and humidity for 24 h together with the cap. 17.4. The weighing bottle was capped, and the weight (m3) was precisely measured. [formula]

[5] = tested on: ICR mice; assay: Mouse forced swimming test; assay type: in vivo; settings: for Immobility time: mice, 1 h after administration, mean±SD, n=12
Procedure: SPF grade ICR mice were taken. The animals were grouped by weight, 12 animals per group, and the animals were allowed to acclimate for at least 3 days before behavioural test.
The behavioural test was started 1 h after intragastric administration. The mice were placed in a transparent glass cylinder with water (water depth: 15 cm, water temperature: 23-25° C.) and video recorded for 6 min (the background was an LED light panel). At the end of the time, the mice were removed from the water and the next batch of mice was subjected to the behavioural test. Water was changed after every 3 batches of tests. After the test, the video of the behavioural test was derived and the cumulative immobility time of the mice 4 min after the 6 min forced swimming period was analyzed using the Forced Swim Scant 2.0 software.
The test results are expressed as mean±SD. Comparisons between each group and the vehicle group were conducted using the t-test. The differences were considered statistically significant when. P<0.05.

[6] = Pharmacokinetic assay in beagle dogs; settings: both, dog, in vivo, mean; for half-life: t1/2, beagle dogs
Procedure: as §1, §2

[7] = 5 days, listed as A crystal form
[8] = 10 days, listed as A crystal form
[9] = 30 days, listed as A crystal form
[10] = po, 1 mg/kg, beagle dogs, oral (capsule)

Compound: CNCC[C@@H](Oc1cccc2c1OCO2)c1ccccc1.O=C(O)C(=O)O [(R)—N-methyl-3-phenyl-3-[(benzo[d][1,3]dioxolan-4-yl)oxy]propylamine oxalate, reference compound]
- solubility ([1]; thermodynamic from solid, Water, 20° C., overnight oscillation, read-out: Solubility): 5100 µg/mL

Compound: CNCC[C@@H](Oc1cccc2c1OCO2)c1ccccc1.Cl [B crystal form, (R)—N-methyl-3-phenyl-3-[(benzo[d][1,3]dioxolan-4-yl)oxy]propylamine hydrochloride]
- Crystal form after High temperature of 60° C. ([2]; 5 days): Crystal form A + B
- Crystal form after High temperature of 60° C. ([2]; 10 days): Crystal form A + B
- Crystal form after High temperature of 60° C. ([2]; 30 days): Crystal form A + B
- Crystal form stability (experimental conclusion) [2]: converted into a mixed crystal of the crystal forms A and B under the high temperature and high humidity environment
- Crystal form after Illumination of 5000 1x ([2]; 5 days): Crystal form B
- Crystal form after Illumination of 5000 1x ([2]; 10 days): Crystal form B
- Crystal form after Illumination of 5000 1x ([2]; 30 days): Crystal form B
- Crystal form after High humidity of 92.5% ([2]; 5 days): Crystal form A + B
- Crystal form after High humidity of 92.5% ([2]; 10 days): Crystal form A + B
- Crystal form after High humidity of 92.5% ([2]; 30 days): Crystal form A + B

Compound: CNCC[C@@H](Oc1cccc2c1OCO2)c1ccccc1.Cl [C crystal form, (R)—N-methyl-3-phenyl-3-[(benzo[d][1,3]dioxolan-4-yl)oxy]propylamine hydrochloride]
- Crystal form after High temperature of 60° C. ([2]; 5 days): Crystal form C
- Crystal form after High temperature of 60° C. ([2]; 10 days): Crystal form C
- Crystal form after High temperature of 60° C. ([2]; 30 days): Crystal form C
- Crystal form stability (experimental conclusion) [2]: converted into the A crystal form under the high humidity environment
- Crystal form after Illumination of 5000 1x ([2]; 5 days): Crystal form C
- Crystal form after Illumination of 5000 1x ([2]; 10 days): Crystal form C
- Crystal form after Illumination of 5000 1x ([2]; 30 days): Crystal form C
- Crystal form after High humidity of 92.5% ([2]; 5 days): Crystal form A
- Crystal form after High humidity of 92.5% ([2]; 10 days): Crystal form A
- Crystal form after High humidity of 92.5% ([2]; 30 days): Crystal form A

Compound: CNCC[C@@H](Oc1cccc2c1OCO2)c1ccccc1.Cl [Crystal form A of compound of formula (I)] [(R)—N-methyl-3-phenyl-3-[(benzo[d][1,3]dioxolan-4-yl)oxy]propylamine hydrochloride]
- solubility [1]: 35550 µg/mL
- Crystal form after High temperature of 60° C. [2, 7]: Crystal form A
- Crystal form after High temperature of 60° C. [2, 8]: Crystal form A
- Crystal form after High temperature of 60° C. [2, 9]: Crystal form A
- Crystal form stability (experimental conclusion) ([2]; listed as A crystal form): can keep stable under high temperature, high humidity, and illumination
- Crystal form after Illumination of 5000 1x [2, 7]: Crystal form A
- Crystal form after Illumination of 5000 1x [2, 8]: Crystal form A
- Crystal form after Illumination of 5000 1x [2, 9]: Crystal form A
- Crystal form after High humidity of 92.5% [2, 7]: Crystal form A
- Crystal form after High humidity of 92.5% [2, 8]: Crystal form A
- Crystal form after High humidity of 92.5% [2, 9]: Crystal form A
- AUC(0-t) ([3]; iv, 0.3 mg/kg): 123.7 ng·h/mL
- AUC(0-∞) ([3]; iv, 0.3 mg/kg): 124.5 ng·h/mL
- Cmax ([3]; iv, 0.3 mg/kg): 83.6 ng/mL
- Tmax ([3]; iv, 0.3 mg/kg): 0.08 h
- t1/2 ([3]; iv, 0.3 mg/kg): 2.08 h
- bioavailability ([3]; po): 28.2%
- AUC(0-t) ([3]; po, 1 mg/kg): 116.3 ng·h/mL
- AUC(0-∞) ([3]; po, 1 mg/kg): 117.1 ng·h/mL
- Cmax ([3]; po, 1 mg/kg): 35.3 ng/mL
- Tmax ([3]; po, 1 mg/kg): 0.92 h
- t1/2 ([3]; po, 1 mg/kg): 2.48 h
- Weight gain [4]: 0.01%
- Hygroscopicity ([4]; listed as A crystal form of the compound of formula (I)): no or almost no hygroscopicity
- Hygroscopicity ([4]; listed as A crystal form): no or almost no hygroscopicity

Compound: CNCC[C@H](Oc1cccc2ccccc12)c1cccs1 [Duloxetine hydrochloride, reference compound]
- ED50 ([5]; Mus musculus, po, read-out: ED50 (median effective dose, FST-ED50)): 6.93 mg/kg
- Immobility time ([5]; intragastric, 1.25 mg/kg): 135.1 ± 49.2 s
- Immobility time ([5]; intragastric, 2.5 mg/kg): 154.9 ± 76.0 s
- Immobility time ([5]; intragastric, 5 mg/kg): 104.9 ± 51.5 s
- Immobility time ([5]; intragastric, 20 mg/kg): 29.9 ± 45.4 s
- Immobility time ([5]; intragastric, 40 mg/kg): 10.6 ± 17.3 s
- minimum effective dose (MED) ([5]; mouse forced swimming, intragastric): 5 mg/kg

Compound: CNCCC(Oc1cccc2c1OCO2)c1ccccc1.O=C(O)C(=O)O (centres unmarked) [N-methyl-3-phenyl-3-[(benzo[d][1,3]dioxolan-4-yl)oxy]propylamine oxalate]
- solubility ([1]; water, 20 °C, water, thermodynamic from solid, Water, 20° C., overnight oscillation, read-out: Solubility): 6900 µg/mL
- AUC(0-t) ([6]; iv, 0.3 mg/kg, beagle dogs): 109 ng·h/mL
- AUC(0-inf) ([6]; iv, 0.3 mg/kg, beagle dogs): 110 ng·h/mL
- Cmax ([6]; iv, 0.3 mg/kg, beagle dogs): 71.6 ng/mL
- Tmax ([6]; iv, 0.3 mg/kg, beagle dogs): 0.08 h
- half-life ([6]; iv, 0.3 mg/kg): 1.93 h
- AUC(0-t) [6, 10]: 78.7 ng·h/mL
- AUC(0-inf) [6, 10]: 79.9 ng·h/mL
- bioavailability ([6]; po, 1 mg/kg, Bioavailability, beagle dogs, oral 1 mg/kg vs intravenous 0.3 mg/kg): 21.8%
- Cmax [6, 10]: 23.7 ng/mL
- Tmax [6, 10]: 1.43 h
- half-life ([6]; po, 1 mg/kg, oral (capsule)): 1.98 h

From patent US20260258009A1, “3-[(BENZO[D][1,3]DIOXOLANE-4-YL)OXY]PROPYLAMINE HYDROCHLORIDE, OPTICAL ISOMER AND CRYSTAL THEREOF, AND PREPARATION METHOD THEREFOR” (priority 2022, published 2026)
